Reference: US7566791B2, “Substituted 3-carbonyl-1h-indol-1yl acetic acid derivatives as inhibitors of plasminogen activator inhibitor-1 (PAI-1)” (Wyeth, priority 2002, dated 2009)

Experiments:
[1] = biological target: T1, recombinant human plasminogen activator inhibitor-1 (Homo sapiens, UniProt P05121); test: Primary screen for the PAI-1 inhibition (residual tPA activity, chromogenic Spectrozyme-tPA); type: biochemical; settings: 25 uM test compound; pH 6.6 buffer, 140 nM PAI-1, 70 nM tPA
T1 construct: purchased Molecular Innovations, Royal Oak, Mich
Experimental: Primary Screen for the PAI-1 Inhibition
Test compounds were dissolved in DMSO at a final concentration of 10 mM, then diluted 100× in physiologic buffer. The inhibitory assay was initiated by the addition of the test compound (1-100 μM final concentration, maximum DMSO concentration of 0.2%) in a pH 6.6 buffer containing 140 nM recombinant human plasminogen activator inhibitor-1 (Molecular Innovations, Royal Oak, Mich.). Following a 1 hour incubation at room temperature, 70 nM of recombinant human tissue plasminogen activator (tPA) was added, and the combination of the test compound, PAI-1 and tPA was incubated for an additional 30 minutes. Following the second incubation, Spectrozyme-tPA (American Diagnostica, Greenwich, Conn.), a chromogenic substrate for tPA, was added and absorbance was read at 405 nm at 0 and 60 minutes. Relative PAI-1 inhibition was equal to the residual tPA activity in the presence of the test compound and PAI-1. Control treatments included the complete inhibition of tPA by PAI-1 at the molar ratio employed (2:1), and the absence of any effect of the test compound on tPA alone.

T1 sequence (P05121 24-402): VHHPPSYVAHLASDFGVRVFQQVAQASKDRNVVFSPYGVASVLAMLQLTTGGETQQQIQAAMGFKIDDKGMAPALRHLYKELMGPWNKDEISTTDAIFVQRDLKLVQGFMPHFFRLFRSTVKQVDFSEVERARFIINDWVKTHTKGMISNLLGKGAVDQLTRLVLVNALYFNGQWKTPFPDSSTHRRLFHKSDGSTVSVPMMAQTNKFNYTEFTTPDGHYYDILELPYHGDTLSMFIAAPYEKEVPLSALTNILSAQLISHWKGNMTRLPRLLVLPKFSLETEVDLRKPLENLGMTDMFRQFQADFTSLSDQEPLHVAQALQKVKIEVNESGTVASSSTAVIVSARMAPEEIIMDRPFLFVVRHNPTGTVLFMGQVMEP

O=C(O)Cn1cc(C(=O)c2ccc(Cl)cc2)c2cc(-c3ccc(Cl)cc3)ccc21 [Example 1, [3-(4-chlorobenzoyl)-5-(4-chlorophenyl)-1H-indol-1-yl]acetic acid]
melting point: 255 to 257 °C
inhibition at 25 µM [1]: 47%

Cc1ccc(-c2ccc3c(c2)c(C(=O)c2cc4ccccc4s2)cn3CC(=O)O)cc1 [Example 2, [3-(Benzo[b]thiophene-2-carbonyl)-5-(4-methylphenyl)-1H-indol-1-yl]-acetic acid]
inhibition at 25 µM [1]: 45%

Cc1ccc(-c2ccc3c(c2)c(C(=O)c2ccc(Cl)cc2)cn3CC(=O)O)cc1 [Example 3, [3-(4-chlorobenzoyl)-5-(4-methylphenyl)-1H-indol-1-yl]-acetic acid]
inhibition at 25 µM [1]: 46%
